The results in this text go back to patent US11077036B2, “Lactam solubility” (Conopco, Inc., priority 2015, dated 2021).

The data set is described as follows: Lactam solubility in water or water + ethyl lactate (48 hours agitation, filtration, HPLC quantification). It is filed as physicochemical. As to conditions: for Mean Lactam Level in Solution: 48 hours agitation. The procedure:
The following example uses, without limitation, 4-(4-chlorophenyl)-5-methylene-pyrrol-2-one and ethyl lactate.
Excess solid lactam (˜3 mg) was placed in a Whatman® Mini Uniprep sample vial, fitted with a 0.45 μm nylon filter. Water or water+ethyl lactate (500 μL) was added the mixture shaken and tapped briefly to initially disperse the solid and the mixture then agitated for 48 hours using a plate shaker fitted with a vial holder (see image below). After 48 hours, the solid was removed from the system by pressing down the plunger with integral filter on the vial (see image below). This removes the solid and provides filtered solution within the inner chamber which is then ready for analysis.
The level of lactam dissolved in solution was quantified using HPLC analysis. Samples were analysed on an Agilent 1200® series HPLC fitted with a Thermo Hypersil® Gold C18 column (15×2.1×3 μm), isocratic elution with 60/40 methanol/water (+0.1% Formic Acid), 0.4 mL/min flow rate, using a DAD detector at 285 nm. 4-(4-chlorophenyl)-5-methylene-pyrrol-2-one has a retention time of ˜2.8 minutes.
The absolute level of lactam in solution is measured and reported as an increase in solubility of lactam relative to water alone.

The mark [1] stands for this setting: 0 % ethyl lactate in water (water alone).

In the case of `C=C1NC(=O)C=C1c1ccc(Cl)cc1` [4-(4-chlorophenyl)-5-methylene-pyrrol-2-one], the “Solubility Increase vs water alone” value is, setting by setting: under setting [1], 1.00; (0.5 % ethyl lactate in water) 1.21; (1 % ethyl lactate in water) 1.21; (2 % ethyl lactate in water) 1.99; (5 % ethyl lactate in water) 4.63; (10 % ethyl lactate in water) 10.57. Further, the “Mean Lactam Level in Solution” value turned out to be 5.7 ppm under setting [1]; 6.9 ppm (0.5 % ethyl lactate in water); 6.9 ppm (1 % ethyl lactate in water); 11.3 ppm (2 % ethyl lactate in water); 26.4 ppm (5 % ethyl lactate in water); 60.2 ppm (10 % ethyl lactate in water).
